From publication PMC11019550, “Potent Inhibition of E. coli DXP Synthase by a gem-Diaryl Bisubstrate Analog” (ACS Infectious Diseases, 2024) come the findings set out here.

Each structure is given as a SMILES string.

Test [1] has as its target T1, WT EcDXPS (Escherichia coli, UniProt P77488).
T1 construct: made in house
Nature of the test: Circular dichroism titration (PLThDP formation, apparent KD) on WT EcDXPS. The test is classed as binding. The text has this: The X-ray structure obtained from cocrystallization of DrDXPS with 1 (Figure 2) indicates the formation of the PLThDP adduct by reaction of the acetylphosphonate mimic of pyruvate with the C2 carbanion of ThDP. We reasoned that 8 should also engage the pyruvate binding site and react with ThDP to form a PLThDP adduct. Circular dichroism (CD) is a powerful tool that can be used to detect LThDP and LThDP-like adducts on thiamin-dependent enzymes,[56],[67]−[75] including DXPS.[31],[36],[43],[44],[49]−[52],[76] DXPS bound to ThDP (E-ThDP) is characterized by a CD λmin at 320 nm, indicative of the 4′-aminopyrimidine (AP) tautomer of ThDP (Figure 8A). Upon addition of pyruvate to E-ThDP, a new positive signal emerges at 313 nm, indicating the formation of LThDP in its 1′,4′-iminopyrimidine (IP) form. Similarly, upon addition of AP-based inhibitors to E-ThDP, the E-PLThDP adduct is formed, characterized by an increasing, broad CD signal.[69],[77],[78] Determination of apparent KD of PLThDP by plotting the CD signal corresponding to PLThDP versus [MAP] has been used as a proxy for PLThDP affinity.[77],[78] To confirm that 8 reacts with ThDP to form PLThDP in the DXPS active site, the change in CD signal upon addition of 8 (0.25–30 μM) to EcDXPS (30 μM) was measured. […] Plotting the CD signal at 294 nm versus affords a curve that approaches the limiting asymptotes defined by infinitely tight binding (Figure 8C),[79],[80] which is expected for this nanomolar inhibitor under the conditions of high [DXPS] required for this method. Since in this case [DXPS] ≫ KD^app, an accurate determination of KD^app is not possible, and data were fit to a quadratic equation to give an estimated upper limit for the value of KD^app (≤0.04 ± 0.01 μM). Addition of 10 to DXPS also results in an increased, broad CD signal (Figure S7A), indicating PLThDP formation. […]
CD titrations of 8 and 10 onto WT, R99A, and R478A EcDXPS variants were conducted at 25 °C under aerobic conditions in 1.5 mL solutions containing 30 μM EcDXPS in 50 mM HEPES pH 8, 100 mM NaCl, 1 mM MgCl2, and 0.2 mM ThDP. […] The CD signals at 294 nm determined from the difference spectra obtained by subtracting the signal of E-ThDP at 294 nm were plotted as a function of [inhibitor] and fit to (1) the quadratic equation described in eq 2 (8 on WT DXPS), where E is the concentration of DXPS taking into account stoichiometric binding and CDmax is the maximal CD signal, or (2) a one-site specific binding curve (all other experiments) using GraphPad Prism Version 9 to calculate an apparent KD. Experiments were conducted in triplicate and the standard error was calculated. […]
At the conclusion of the titration described above, the CD signal at 313 nm (previously characterized for LThDP) was recorded. […]
On the technique in general: Circular dichroism is the unequal absorption of left and right circularly polarised light.

The next test has as its target T2, EcDXPS (Escherichia coli, UniProt P77488).
T2 construct: made in house
Nature of the test: DXPS-IspC coupled assay, apparent Ki on wildtype EcDXPS. The test is classed as biochemical. As to the method:
To determine inhibitor potency, we used the DXPS-DXP reductoisomerae (DXPS-IspC) coupled assay to measure the activity of recombinant purified EcDXPS[24],[25],[31],[44],[50] in the presence of inhibitors. Reactions were initiated by the addition of substrates following a short preincubation of the inhibitor with enzymes, and initial velocities were determined by monitoring reduced nicotinamide adenine dinucleotide phosphate (NADPH) absorbance at 340 nm. Apparent Ki values were determined by fitting initial velocity data to the Morrison equation,[64],[65] which accounts for the tight-binding nature (Ki^app/[E]total < 10)[66] of inhibitors included in this study and allows for rigorous comparison of inhibitor potencies. […] Inhibitor activities were rationalized based on the predictions made from molecular docking of the corresponding PLThDP adducts into the DXPS active site.
All compounds in this study were evaluated as DXPS inhibitors using the DXPS-IspC coupled assay as previously reported.[24] […] The DXPS reaction was initiated by the addition of substrates (50 μM pyruvate and 500 μM D-GAP). The initial rate of depletion of NADPH was monitored at 340 nm and was used to calculate the initial rate of DXP formation in the presence or absence of inhibitor. Initial rates of DXP formation were plotted as a function of [inhibitor], and Ki^app was determined by fitting the data to the Morrison equation (eq 1)[64],[65] in GraphPad Prism. This approach was deemed appropriate as the concentration of free inhibitor cannot be assumed to remain constant for most of these analogs in which Ki^app values approach the concentration of DXPS.[88],[89] Error is reported as standard deviation from three replicates. Active enzyme concentration ([E]T) was determined following Copeland’s method using 8 (Figure S2B).[88]
The coupled assay was initiated by adding 20 μL of a 10× substrate stock to the preincubated E + I mixture to give a final volume of 200 μL. The final concentration of D-GAP was held constant at 500 μM, and [pyruvate] was added to final concentrations between 0 and 250 μM. The initial rate of NADPH depletion in the IspC-coupled reaction was monitored at 340 nm and was used to calculate the initial rate of DXP formation in the presence or absence of inhibitor. Initial rates were plotted as a function of [pyruvate]. […] Model discrimination analysis employing the Akaike information criterion was performed as well as Lineweaver–Burk analysis to determine the mixed model as the best fit. In all cases, error bars represent the standard deviation from three replicates.

In test [2] the target is T1, WT EcDXPS. Nature of the test: Time-dependent inhibition, reaction progress curves on WT EcDXPS. The test is classed as biochemical. To be noted: 8 at 400 or 800 nM, 10 at 1 or 100 μM. As to the method:
To determine if 8 is also a slow-onset inhibitor of DXPS, reaction progress was monitored upon simultaneous addition of substrates (pyruvate and D-GAP) in the presence or absence of inhibitor. In the absence of inhibitor, the reaction progress curve is linear. […] To assess the importance of the carboxyl group of 8, we evaluated descarboxy analog 10 in the same manner.
EcDXPS (100 nM) and IspC (2 μM) were preincubated in enzyme reaction buffer (100 mM HEPES pH 8, 2 mM MgCl2, 5 mM NaCl, 1 mM ThDP, and 200 μM NADPH) with 250 μM D-GAP for 10 min at 25 °C. The reaction was initiated by the addition of pyruvate (1 mM) and inhibitor (400 nM and 800 nM 8; 1 μM and 100 μM 10). The reaction mixture was incubated at 25 °C, and the absorbance of NADPH at 340 nm was monitored. The change in the absorbance of NADPH over time was used to calculate [DXP] (μM) produced over time. Experiments were performed in triplicate.

A further test addresses T3, R478A EcDXPS (Escherichia coli, UniProt P77488, R478A).
T3 construct: made in house
Nature of the test: Circular dichroism titration (PLThDP formation, apparent KD) on R478A EcDXPS. The test is classed as binding. The method, then:
(§1) CD titrations of 8 and 10 onto WT, R99A, and R478A EcDXPS variants were conducted at 25 °C under aerobic conditions in 1.5 mL solutions containing 30 μM EcDXPS in 50 mM HEPES pH 8, 100 mM NaCl, 1 mM MgCl2, and 0.2 mM ThDP. Scans were obtained from 280 to 400 nm with a 0.5 s averaging time and 1 nm step following a titration of inhibitor (8: 0.25–30 μM on WT, 0.5–30 μM on R99A and R478A; 10 2.5–30 μM on WT, R99A, and R478A), with a 5 min preincubation of inhibitor with DXPS prior to scanning. […] The CD signals at 294 nm determined from the difference spectra obtained by subtracting the signal of E-ThDP at 294 nm were plotted as a function of [inhibitor] and fit to (1) the quadratic equation described in eq 2 (8 on WT DXPS), where E is the concentration of DXPS taking into account stoichiometric binding and CDmax is the maximal CD signal, or (2) a one-site specific binding curve (all other experiments) using GraphPad Prism Version 9 to calculate an apparent KD. Experiments were conducted in triplicate and the standard error was calculated. [drawing 2] 2
(§2) At the conclusion of the titration described above, the CD signal at 313 nm (previously characterized for LThDP) was recorded. Pyruvate (1 mM) was then added to the mixture, and a CD scan of the resulting solution was conducted as described above, to detect shifts in the CD spectrum that may correlate to LThDP formation. Experiments were conducted in triplicate.

In the next test the target is T4, R99A EcDXPS (Escherichia coli, UniProt P77488, R99A).
T4 construct: made in house
Nature of the test: Circular dichroism titration (PLThDP formation, apparent KD) on R99A EcDXPS. The test is classed as binding. As to the method: as §1, §2

`CC(=O)P(=O)(O)OCCc1cn(C(Cc2ccccc2)Cc2ccccc2)nn1` [Compound 10]: the Kd came to 9 ± 1 µM on WT EcDXPS [1], 6 ± 1 µM on R478A EcDXPS and 14.5 ± 0.7 µM at R99A EcDXPS. For the same compound, the “change in PLThDP CD signal upon addition of 1 mM pyruvate” value on WT EcDXPS [1] (WT EcDXPS 30 μM, inhibitor 30 μM) was “CD signal shift and an increase in amplitude”. The Ki at EcDXPS (read-out: Ki^app) worked out at 11 ± 1 µM. Also, the “fold increase in Ki^app relative to 8” value at EcDXPS (relative to compound 8) is recorded as approximately 3800 fold. Further, the “time dependence of inhibition (progress curve for DXP formation)” value on WT EcDXPS [2] is “linear”.
